Legend:
[1] = biological target: T1, human orexin 1 receptor (Homo sapiens, UniProt O43613); assay: Radioligand binding assay ([3H]-SB649868 competition), human orexin 1 receptor; conditions: radioligand [3H]-SB649868; read-out: Binding hOx1R Kd
T1 construct: expressed in transfected cells
T1 sequence (O43613 1-425): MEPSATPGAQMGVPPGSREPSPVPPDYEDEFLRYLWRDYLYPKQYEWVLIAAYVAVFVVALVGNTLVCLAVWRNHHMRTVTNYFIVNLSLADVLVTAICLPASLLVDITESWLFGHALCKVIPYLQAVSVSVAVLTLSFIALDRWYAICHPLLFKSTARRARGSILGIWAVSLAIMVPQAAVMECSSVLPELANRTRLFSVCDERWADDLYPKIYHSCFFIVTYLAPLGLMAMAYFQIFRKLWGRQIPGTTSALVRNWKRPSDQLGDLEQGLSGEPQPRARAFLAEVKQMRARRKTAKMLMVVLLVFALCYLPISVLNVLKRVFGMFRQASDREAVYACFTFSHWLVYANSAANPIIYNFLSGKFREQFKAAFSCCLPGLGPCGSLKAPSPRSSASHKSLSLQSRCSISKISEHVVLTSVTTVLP
Method: (§1) Radioligand Binding Assay
(§2) For crude cell membrane preparations, cells (CHO, Chinese hamster ovary or HEK, human embryonic kidney) expressing human orexin 1 or human orexin 2 receptors, were washed with HEPES (10 mM, pH 7.5), scraped off the culture plates with the same buffer, and centrifuged at 4° C. for 5 min at 2500×g. The cell pellet was either stored at −80° C. or used directly. Before the experiments, cell membranes were re-suspended in binding assay buffer (10 mM HEPES, 0.5% (w/v) bovine serum albumin, pH 7.5) by homogenisation with a Polytron homogeniser at 50 Hz for 20 s. Cell membranes were also used as made available by commercial providers.
(§3) Bound radioactivity was measured, and data were analysed with the program XLFIT or Graphpad Prism. Protein concentration was determined according to the Bradford/BioRad Protein Assay Kit.
(§4) In competition experiments, cell homogenates (150 μl) were incubated in assay buffer (10 mM HEPES, pH 7.5, 0.5% (w/v) bovine serum albumin, 5 mM MgCl2, 1 mMCaCl2, and tween 0.05%) for 1 h at room temperature with about 1 nM of the radioligand [^3H]-SB649868, 66 Ci/mmole, 50 μl), and with various concentrations of compounds of the invention (50 μl) in triplicates; non-specific binding was determined in the presence of almorexant (10 μM). Reactions were terminated by vacuum filtration, 3 washes of ice cold wash buffer (Tris-HCl pH 7.4/10 mM, with NaCl 154 mM). Competition data is expressed in Table 1 as Kd [μM].

[2] = biological target: T2, human orexin 2 receptor (Homo sapiens, UniProt O43614); assay: Radioligand binding assay ([3H]-SB649868 competition), human orexin 2 receptor; conditions: radioligand [3H]-SB649868; read-out: Binding hOx2R Kd
T2 construct: expressed in transfected cells
T2 sequence (O43614 1-444): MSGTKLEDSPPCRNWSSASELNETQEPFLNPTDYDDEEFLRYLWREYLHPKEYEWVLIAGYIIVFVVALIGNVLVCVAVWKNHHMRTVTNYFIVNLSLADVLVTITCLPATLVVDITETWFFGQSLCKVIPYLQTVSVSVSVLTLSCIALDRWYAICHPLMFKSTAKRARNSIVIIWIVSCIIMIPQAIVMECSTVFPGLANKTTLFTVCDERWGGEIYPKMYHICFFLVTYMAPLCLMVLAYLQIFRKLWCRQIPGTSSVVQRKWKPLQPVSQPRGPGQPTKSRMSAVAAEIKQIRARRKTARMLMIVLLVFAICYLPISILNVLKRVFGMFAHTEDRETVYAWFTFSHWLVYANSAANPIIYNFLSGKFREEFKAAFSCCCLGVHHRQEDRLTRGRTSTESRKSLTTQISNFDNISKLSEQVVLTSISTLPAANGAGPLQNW
Method: as §1, §2, §3, §4

[3] = biological target: T1, human orexin 1 receptor; assay: Calcium accumulation in cells (FLIPR), antagonism of orexin A, human orexin 1 receptor; format: cell-based; conditions: calcium accumulation, antagonism of orexin A, Cheng-Prusoff corrected; read-out: FLIPR hOx1R Ki
[4] = biological target: T2, human orexin 2 receptor; assay: Calcium accumulation in cells (FLIPR), antagonism of orexin A, human orexin 2 receptor; format: cell-based; conditions: calcium accumulation, antagonism of orexin A, Cheng-Prusoff corrected; read-out: FLIPR hOx2R Ki

| Structure (SMILES) | Kd [1] [nM] | Kd [2] [nM] | Ki [3] [nM] | Ki [4] [nM] |
| --- | --- | --- | --- | --- |
| COc1ccc2[nH]nc(CN3CCNC4(CCN(c5nc(C)cc(C)n5)CC4)C3=O)c2c1 [Example 1.56, 9-(4,6-Dimethyl-pyrimidin-2-yl)-4-((5-methoxy-1H-indazol-3-yl)methyl)-1,4,9-triazaspiro[5.5] undecan-5-one] | 492 | 11 | 594 | 2.7 |
| Cc1cc(C)nc(N2CCC3(CC2)NCCN(Cc2nn(C)cc2-c2cccc(OC4CC4)c2)C3=O)n1 [Example 1.62, 4-((4-(3-Cyclo-propoxyphenyl)-1-methyl-1H-pyrazol-3-yl)methyl)-9-(4,6-dimethyl-pyrimidin-2-yl)-1,4,9-triazaspiro[5.5] undecan-5-one] | 142 | 8 | 163 | 1 |
| COc1cc(C)nc(N2CCC3(CC2)NCCN(Cc2n[nH]c4ccccc24)C3=O)n1 [Example 1.65, 4-((1H-indazol-3-yl)methyl)-9-(4-methoxy-6-methyl-pyrimidin-2-yl)-1,4,9-triazaspiro[5.5] undecan-5-one] | 1160 | 58 | 1580 | 21 |
| CCc1cccc(-c2cn(C)nc2CN2CCNC3(CCN(c4nc(C)cc(C)n4)CC3)C2=O)c1 [Example 1.67, 9-(4,6-dimethyl-pyrimidin-2-yl)-4-((4-(3-ethyl-phenyl)-1-methyl-1H-pyrazol-3-yl)methyl)-1,4,9-triazaspiro[5.5] undecan-5-one] | 1770 | 50 | 1140 | 5 |
| Cc1cc(C)nc(N2CCC3(CC2)NCCN(Cc2nn(C)cc2-c2cccc(C(C)C)c2)C3=O)n1 [Example 1.68, 9-(4,6-dimethyl-pyrimidin-2-yl)-4-((4-(3-isopropyl-phenyl)-1-methyl-1H-pyrazol-3-yl)methyl)-1,4,9-triazaspiro[5.5] undecan-5-one] | 1440 | 13 | 945 | 4 |
| CCC(=O)c1cccc(-c2cn(C)nc2CN2CCNC3(CCN(c4nc(C)cc(C)n4)CC3)C2=O)c1 [Example 1.70, 9-(4,6-dimethyl-pyrimidin-2-yl)-4-((1-methyl-4-(3-propionylphenyl)-1H-pyrazol-3-yl)methyl)-1,4,9-triazaspiro[5.5] undecan-5-one] | 465 | 21 | 856 | 2 |
| Cc1cc(C)nc(N2CCC3(CC2)NCCN(Cc2nn(C)cc2-c2cccc(C(F)F)c2)C3=O)n1 [Example 1.71, 4-((4-(3-(difluoromethyl)phenyl)-1-methyl-1H-pyrazol-3-yl)methyl)-9-(4,6-dimethylpyrimidin-2-yl)-1,4,9-triazaspiro[5.5] undecan-5-one] | 1700 | 227 | 2060 | 30 |
| Cc1cc(C)nc(N2CCC3(CC2)NCCN(Cc2nn(C)cc2-c2cccc(OCCOC(C)C)c2)C3=O)n1 [Example 1.72, 9-(4,6-dimethyl-pyrimidin-2-yl)-4-((4-(3-(2-iso-propoxyethoxy)phenyl)-1-methyl-1H-pyrazol-3-yl)methyl)-1,4,9-triazaspiro[5.5] undecan-5-one] | 846 | 203 | 1590 | 49 |
| Cc1cc(C)nc(N2CCC3(CC2)NCCN(Cc2nn(C)cc2-c2cccc(N4CCOCC4)c2)C3=O)n1 [Example 1.73, 9-(4,6-dimethyl-pyrimidin-2-yl)-4-((1-methyl-4-(3-morpholinophenyl)-1H-pyrazol-3-yl)methyl)-1,4,9-triazaspiro[5.5] undecan-5-one] | 1380 | 163 | 862 | 20 |
| COc1cc(-c2nn(C)nc2CN2CCNC3(CCN(c4nc(C)cc(C)n4)CC3)C2=O)ccn1 [Example 1.74, 9-(4,6-dimethyl-pyrimidin-2-yl)-4-((5-(2-methoxy-pyridin-4-yl)-2-methyl-2H-1,2,3-triazol-4-yl)methyl)-1,4,9-triazaspiro[5.5] undecan-5-one] | 2500 | 127 | 4270 | 48 |
| Cc1cc(C)nc(N2CCC3(CC2)NCCN(Cc2nn(C)nc2-c2cccc(N4CCOCC4)c2)C3=O)n1 [Example 1.77] | 2840 | 225 | 2880 | 56 |
| COCCOc1cccc(-c2nn(C)nc2CN2CCNC3(CCN(c4nc(C)cc(C)n4)CC3)C2=O)c1 [Example 1.78, 9-(4,6-dimethyl-pyrimidin-2-yl)-4-((5-(3-(2-methoxyethoxy)phenyl)-2-methyl-2H-1,2,3-triazol-4-yl)methyl)-1,4,9-triazaspiro[5.5] undecan-5-one] | 709 | 28 | 1870 | 9 |
| Cc1cc(C)nc(N2CCC3(CC2)NCCN(Cc2nn(C)nc2-c2cccc(OC(C)C)c2)C3=O)n1 [Example 1.79, 9-(4,6-dimethyl-pyrimidin-2-yl)-4-((5-(3-isopropoxy-phenyl)-2-methyl-2H-1,2,3-triazol-4-yl)methyl)-1,4,9-triazaspiro[5.5] undecan-5-one] | 535 | 22 | 166 | 3.7 |
| Cc1cc(C)nc(N2CCC3(CC2)NCCN(Cc2nn(C)nc2-c2ccc4c(c2)OCCO4)C3=O)n1 [Example 1.80, 4-((5-(2,3-dihydro-benzo[b][1,4]dioxin-6-yl)-2-methyl-2H-1,2,3-triazol-4-yl)methyl)-9-(4,6-dimethylpyrimidin-2-yl)-1,4,9-triazaspiro[5.5] undecan-5-one] | 860 | 27 | 501 | 4.3 |
| Cc1cc(C)nc(N2CCC3(CC2)OCCN(Cc2c[nH]c4ccccc24)C3=O)n1 [Example 2.1, 4-((1H-indol-3-yl)methyl)-9-(4,6-dimethylpyrimidin-2-yl)-1-oxa-4,9-diazaspiro[5.5]undecan-5-one] | 1320 | 31 | 1700 | 29 |
| Cc1cc(C)nc(N2CCC3(CC2)OCCN(Cc2n[nH]c4ccccc24)C3=O)n1 [Example 2.2, 9-(4,6-Dimethyl-pyrimidin-2-yl)-4-(1H-indazol-3-ylmethyl)-1-oxa-4,9-diaza-spiro[5.5]undecan-5-one] | 1840 | 71 | 1800 | 55 |
| Cc1cc(C)nc(N2CCC3(CC2)OCCN(Cc2c[nH]c4ccc(F)cc24)C3=O)n1 [Example 2.6, 9-(4,6-Dimethylpyrimidin-2-yl)-4-((5-fluoro-1H-indol-3-yl)methyl)-1-oxa-4,9-diazaspiro[5.5]undecan-5-one] | 1060 | 26 | 1060 | 13 |
| COc1ccc2[nH]cc(CN3CCOC4(CCN(c5nc(C)cc(C)n5)CC4)C3=O)c2c1 [Example 2.7, 9-(4,6-Dimethylpyrimidin-2-yl)-4-((5-methoxy-1H-indol-3-yl)methyl)-1-oxa-4,9-diazaspiro[5.5]undecan-5-one] | 213 | 6 | 258 | 1 |
| Cc1ccnc(N2CCC3(CC2)OCCN(Cc2c[nH]c4ccccc24)C3=O)n1 [Example 2.8, 4-((1H-Indol-3-yl)methyl)-9-(4-methylpyrimidin-2-yl)-1-oxa-4,9-diazaspiro[5.5]undecan-5-one] | 5610 | 78 | 2460 | 105 |

Reference: US20120165331A1, “Di/tri-aza-spiro-C9-C11alkanes” (priority 2010, published 2012)
